Measured values from publication PMC7582776 (Molecules, 2020).

Key:
[1] = target: T1, CYP2C19 (Homo sapiens, UniProt P33261); experiment: LC-MS/MS, [S]-mephenytoin (substrate cocktail); type: biochemical
T1 construct: native enzyme in ultrapooled human liver microsomes

[2] = target: T2, CYP2B6 (Homo sapiens, UniProt P20813); experiment: LC-MS/MS, bupropion hydroxylation, Lineweaver-Burk/Dixon; type: biochemical
T2 construct: native enzyme in ultrapooled human liver microsomes
T2 sequence (P20813 1-491): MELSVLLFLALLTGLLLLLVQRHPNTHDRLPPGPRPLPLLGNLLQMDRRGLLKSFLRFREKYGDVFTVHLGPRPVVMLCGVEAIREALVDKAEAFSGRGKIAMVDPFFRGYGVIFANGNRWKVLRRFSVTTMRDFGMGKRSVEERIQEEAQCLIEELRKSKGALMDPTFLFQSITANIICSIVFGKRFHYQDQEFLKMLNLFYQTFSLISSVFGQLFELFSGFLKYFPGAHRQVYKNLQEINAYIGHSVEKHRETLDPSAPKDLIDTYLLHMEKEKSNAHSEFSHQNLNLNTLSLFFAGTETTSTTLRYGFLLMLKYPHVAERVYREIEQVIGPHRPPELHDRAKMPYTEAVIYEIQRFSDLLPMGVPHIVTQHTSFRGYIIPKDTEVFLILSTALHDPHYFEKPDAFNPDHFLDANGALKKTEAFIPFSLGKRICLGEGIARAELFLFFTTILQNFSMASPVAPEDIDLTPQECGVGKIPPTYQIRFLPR
Source text: LC-MS/MS, bupropion hydroxylation, Lineweaver-Burk/Dixon on CYP2B6

[3] = target: T3, CYP2C9 (Homo sapiens, UniProt P11712); experiment: LC-MS/MS, diclofenac, Lineweaver-Burk/Dixon; type: biochemical
T3 construct: native enzyme in ultrapooled human liver microsomes
T3 sequence (P11712 whole entry): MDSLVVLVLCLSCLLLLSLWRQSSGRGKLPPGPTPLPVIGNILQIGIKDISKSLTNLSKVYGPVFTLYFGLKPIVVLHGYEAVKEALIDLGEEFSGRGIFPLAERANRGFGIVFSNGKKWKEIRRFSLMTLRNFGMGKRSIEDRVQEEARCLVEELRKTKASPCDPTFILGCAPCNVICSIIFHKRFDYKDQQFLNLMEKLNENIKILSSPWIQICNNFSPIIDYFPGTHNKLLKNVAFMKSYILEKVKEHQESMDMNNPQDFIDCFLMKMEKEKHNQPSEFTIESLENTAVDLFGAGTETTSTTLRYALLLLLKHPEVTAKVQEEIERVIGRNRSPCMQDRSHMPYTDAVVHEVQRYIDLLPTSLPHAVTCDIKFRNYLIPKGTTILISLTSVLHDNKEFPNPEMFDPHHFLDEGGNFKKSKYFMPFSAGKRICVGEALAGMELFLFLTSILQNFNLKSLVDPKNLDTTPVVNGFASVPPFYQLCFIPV

[4] = target: T4, CYP2D6 (Homo sapiens, UniProt P10635); experiment: LC-MS/MS, bufuralol (substrate cocktail); type: biochemical
T4 construct: native enzyme in ultrapooled human liver microsomes
T4 sequence (P10635 whole entry): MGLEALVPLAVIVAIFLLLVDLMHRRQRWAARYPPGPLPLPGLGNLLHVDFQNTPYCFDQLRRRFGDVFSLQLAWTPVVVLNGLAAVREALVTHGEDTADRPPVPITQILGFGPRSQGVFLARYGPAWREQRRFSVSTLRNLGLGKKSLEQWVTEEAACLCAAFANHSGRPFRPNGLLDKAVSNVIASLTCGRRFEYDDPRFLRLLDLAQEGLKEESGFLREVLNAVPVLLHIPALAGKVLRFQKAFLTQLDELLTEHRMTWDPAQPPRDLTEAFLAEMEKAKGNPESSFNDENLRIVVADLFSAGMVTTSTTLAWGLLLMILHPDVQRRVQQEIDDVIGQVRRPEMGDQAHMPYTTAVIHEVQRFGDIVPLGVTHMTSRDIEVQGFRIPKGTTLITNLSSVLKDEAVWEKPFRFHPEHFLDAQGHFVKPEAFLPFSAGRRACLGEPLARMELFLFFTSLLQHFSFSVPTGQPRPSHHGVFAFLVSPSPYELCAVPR

[5] = target: T3, CYP2C9; experiment: LC-MS/MS, diclofenac (substrate cocktail); type: biochemical
[6] = target: T1, CYP2C19; experiment: LC-MS/MS, [S]-mephenytoin, Lineweaver-Burk/Dixon; type: biochemical
[7] = target: T5, OATP1B1 (Homo sapiens, UniProt Q9Y6L6); experiment: [3H]estrone-3-sulfate uptake in HEK293-OATP1B1 cells, Lineweaver-Burk; type: cell-based
T5 construct: gene SLCO1B1; transiently overexpressed in HEK293 cells (Corning)
T5 sequence (Q9Y6L6 1-691): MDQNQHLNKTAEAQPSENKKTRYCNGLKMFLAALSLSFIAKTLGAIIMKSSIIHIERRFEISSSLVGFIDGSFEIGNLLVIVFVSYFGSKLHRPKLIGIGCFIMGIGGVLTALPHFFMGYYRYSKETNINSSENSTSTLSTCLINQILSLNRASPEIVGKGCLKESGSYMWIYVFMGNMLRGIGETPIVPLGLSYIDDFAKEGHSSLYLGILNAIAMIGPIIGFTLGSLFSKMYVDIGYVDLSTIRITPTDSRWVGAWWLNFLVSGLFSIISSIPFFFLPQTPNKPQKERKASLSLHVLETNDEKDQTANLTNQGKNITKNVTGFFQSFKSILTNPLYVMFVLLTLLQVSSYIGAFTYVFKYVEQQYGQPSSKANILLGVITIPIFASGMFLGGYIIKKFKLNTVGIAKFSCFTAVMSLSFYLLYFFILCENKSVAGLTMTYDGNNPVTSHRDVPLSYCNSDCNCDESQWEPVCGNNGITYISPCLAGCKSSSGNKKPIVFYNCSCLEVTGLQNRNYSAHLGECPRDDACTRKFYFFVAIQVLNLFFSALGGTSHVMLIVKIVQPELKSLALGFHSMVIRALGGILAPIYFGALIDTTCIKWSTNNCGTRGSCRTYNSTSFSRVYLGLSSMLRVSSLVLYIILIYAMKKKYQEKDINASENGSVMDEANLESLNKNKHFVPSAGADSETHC
Source text: [3H]estrone-3-sulfate uptake in HEK293-OATP1B1 cells, Lineweaver-Burk on OATP1B1

[8] = target: T6, CYP2C8 (Homo sapiens, UniProt P10632); experiment: LC-MS/MS, amodiaquine N-de-ethylation, Lineweaver-Burk/Dixon; type: biochemical
T6 construct: native enzyme in ultrapooled human liver microsomes
T6 sequence (P10632 1-490): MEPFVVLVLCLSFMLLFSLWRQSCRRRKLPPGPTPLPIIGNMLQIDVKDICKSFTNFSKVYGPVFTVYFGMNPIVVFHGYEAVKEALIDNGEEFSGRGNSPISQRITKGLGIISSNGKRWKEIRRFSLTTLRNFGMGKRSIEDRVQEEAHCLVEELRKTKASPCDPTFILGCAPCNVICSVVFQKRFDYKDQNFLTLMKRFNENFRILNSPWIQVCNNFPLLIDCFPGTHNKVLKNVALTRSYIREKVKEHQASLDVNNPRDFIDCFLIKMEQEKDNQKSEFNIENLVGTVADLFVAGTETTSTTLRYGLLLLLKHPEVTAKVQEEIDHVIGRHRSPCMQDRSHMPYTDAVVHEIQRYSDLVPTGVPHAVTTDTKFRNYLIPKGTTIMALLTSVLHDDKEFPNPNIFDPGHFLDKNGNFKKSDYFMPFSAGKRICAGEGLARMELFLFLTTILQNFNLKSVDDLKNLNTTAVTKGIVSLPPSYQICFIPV
Source text: LC-MS/MS, amodiaquine N-de-ethylation, Lineweaver-Burk/Dixon on CYP2C8

[9] = target: T4, CYP2D6; experiment: LC-MS/MS, bufuralol, Lineweaver-Burk/Dixon; type: biochemical
[10] = target: T5, OATP1B1; experiment: [3H]estrone-3-sulfate uptake in HEK293-OATP1B1 cells; type: cell-based
[11] = target: T6, CYP2C8; experiment: LC-MS/MS, amodiaquine N-de-ethylation (substrate cocktail); type: biochemical
Source text: LC-MS/MS, amodiaquine N-de-ethylation (substrate cocktail) on CYP2C8

[12] = target: T7, CYP1A2 (Homo sapiens, UniProt P05177); experiment: LC-MS/MS, phenacetin O-de-ethylation (substrate cocktail); type: biochemical
T7 construct: native enzyme in ultrapooled human liver microsomes
T7 sequence (P05177 2-516): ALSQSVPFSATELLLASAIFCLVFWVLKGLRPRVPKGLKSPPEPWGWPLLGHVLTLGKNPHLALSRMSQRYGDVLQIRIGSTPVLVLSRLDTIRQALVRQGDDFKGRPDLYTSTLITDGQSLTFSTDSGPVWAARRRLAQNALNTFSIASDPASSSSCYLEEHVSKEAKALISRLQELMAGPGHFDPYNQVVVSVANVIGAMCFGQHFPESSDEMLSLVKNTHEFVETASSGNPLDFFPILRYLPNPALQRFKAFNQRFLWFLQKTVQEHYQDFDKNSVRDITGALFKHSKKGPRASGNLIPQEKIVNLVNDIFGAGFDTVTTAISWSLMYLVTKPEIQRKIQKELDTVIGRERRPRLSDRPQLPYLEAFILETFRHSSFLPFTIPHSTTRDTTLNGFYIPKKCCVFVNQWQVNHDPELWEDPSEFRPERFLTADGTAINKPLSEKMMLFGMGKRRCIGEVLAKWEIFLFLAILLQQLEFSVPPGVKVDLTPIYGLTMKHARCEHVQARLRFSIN
Source text: LC-MS/MS, phenacetin O-de-ethylation (substrate cocktail) on CYP1A2

[13] = target: T2, CYP2B6; experiment: LC-MS/MS, bupropion hydroxylation; type: biochemical
Source text: LC-MS/MS, bupropion hydroxylation on CYP2B6

T1 sequence (P33261 whole entry): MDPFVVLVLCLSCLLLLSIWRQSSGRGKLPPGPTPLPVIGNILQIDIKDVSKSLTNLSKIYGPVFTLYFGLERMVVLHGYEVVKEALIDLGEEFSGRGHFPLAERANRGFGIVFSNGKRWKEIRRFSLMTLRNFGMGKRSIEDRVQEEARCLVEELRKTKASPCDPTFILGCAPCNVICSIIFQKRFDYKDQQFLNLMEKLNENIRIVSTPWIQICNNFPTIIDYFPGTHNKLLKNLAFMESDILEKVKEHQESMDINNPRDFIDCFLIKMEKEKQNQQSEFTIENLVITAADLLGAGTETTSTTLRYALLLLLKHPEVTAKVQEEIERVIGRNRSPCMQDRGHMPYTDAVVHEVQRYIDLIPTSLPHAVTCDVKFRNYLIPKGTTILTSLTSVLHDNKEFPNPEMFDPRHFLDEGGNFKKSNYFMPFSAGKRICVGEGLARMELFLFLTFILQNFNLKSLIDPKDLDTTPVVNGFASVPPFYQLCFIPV

CC(C)[C@H](NC(=O)c1nn(Cc2ccc(F)cc2)c2ccccc12)C(N)=O [AB-FUBINACA, N-[(1S)-1-(aminocarbonyl)-2-methylpropyl]-1-[(4-fluorophenyl)methyl]-1H-indazole-3-carboxamide]
IC50 [1]: 19.7 µM
Ki [2]: 15 µM
Ki [3]: 13.1 µM
IC50 [4]: 40.4 µM
IC50 [5]: 13.5 µM
Ki [6]: 6.3 µM
Ki [7]: 94.4 µM
Ki [8]: 19.9 µM
Ki [9]: 20.8 µM
IC50 [10]: 85.6 µM
IC50 [11]: 44.3 µM
IC50 [12]: > 100 µM
IC50 [13]: 29.9 µM
